Calls of active or inactive are those of the source. No cut-off for these calls is given here.
What was measured:
[1] = Cytotoxicity against mouse BV2 cells assessed as cell viability at 80 uM; format: cell-based, BV-2; details: read-out: Activity
[2] = Cytotoxicity against mouse RAW264.7 cells assessed as cell viability at 80 uM; format: cell-based; details: read-out: Activity
[3] = system: BV-2; assay: Inhibition of LPS-induced NO production in mouse BV2 cells at 80 uM by Griess assay; format: functional
[4] = system: RAW264.7; assay: Inhibition of LPS-induced NO production in mouse RAW264.7 cells at 80 uM by Griess assay; format: functional
[5] = system: BV-2; assay: Inhibition of LPS-induced NO production in mouse BV2 cells by Griess assay; format: functional, cell-based
[6] = system: RAW264.7; assay: Inhibition of LPS-induced NO production in mouse RAW264.7 cells by Griess assay; format: functional, cell-based

Row | IC50 [5] | IC50 [6] | SMILES | viability at 80 µM [1] | viability at 80 µM [2] | inhibition [3] | inhibition [4] | inhibition at 80 µM [3] | inhibition at 80 µM [4]
1 | – | – | C[C@H]1CC[C@@]2(OC1)O[C@@H]1C[C@@H]3[C@H]4CC=C5C[C@H](O[C@H]6O[C@@H](CO)[C@H](O)[C@@H](O[C@H]7O[C@H](C)[C@@H](O[C@@H]8O[C@H](CO)[C@@H](O)[C@H](O)[C@H]8O)[C@H](O)[C@@H]7O)[C@@H]6O[C@H]6O[C@H](C)[C@@H](O)[C@H](O)[C@@H]6O)CC[C@@]5(C)[C@@H]4CC[C@@]3(C)[C@@H]1[C@H]2C | < 50% | < 50% | – | – | – | –
2 | 52.1 µM | 60.7 µM | C[C@@H]1CO[C@]2(O[C@H]3C[C@@H]4[C@@H]5CC=C6C[C@@H](O[C@@H]7O[C@H](CO)[C@@H](O)[C@H](O[C@@H]8O[C@@H](C)[C@H](O)[C@@H](O)[C@H]8O)[C@H]7O[C@@H]7O[C@@H](C)[C@H](O)[C@@H](O)[C@H]7O)CC[C@]6(C)[C@H]5CC[C@]4(C)[C@H]3[C@@H]2C)[C@@H](O)[C@@H]1O (stereo in doubt) | – | – | Active | Active | – | –
3 | > 80 µM | > 80 µM | C[C@@H]1COC2(C[C@@H]1O)O[C@H]1C[C@H]3[C@@H]4CC=C5C[C@@H](O[C@@H]6O[C@H](CO)[C@@H](O)[C@H](O[C@@H]7O[C@@H](C)[C@H](O)[C@@H](O)[C@H]7O)[C@H]6O[C@@H]6O[C@@H](C)[C@H](O)[C@@H](O)[C@H]6O)CC[C@]5(C)[C@H]4CC[C@]3(C)[C@H]1[C@@H]2C (single isomer, unassigned) | – | – | – | – | < 50% | < 50%
4 | 47.3 µM | 58.2 µM | C[C@@H]1CO[C@@]2(O[C@@H]3C[C@@H]4[C@H]5CC=C6C[C@H](O[C@@H]7O[C@H](CO)[C@@H](O)[C@H](O[C@@H]8O[C@@H](C)[C@H](O[C@@H]9O[C@H](CO)[C@@H](O)[C@H](O)[C@H]9O)[C@@H](O)[C@H]8O)[C@H]7O[C@@H]7O[C@@H](C)[C@H](O)[C@@H](O)[C@H]7O)CC[C@@]6(C)[C@@H]5CC[C@@]4(C)[C@@H]3[C@H]2C)[C@H](O)[C@@H]1O (stereo in doubt) | – | – | Active | Active | – | –
5 | > 80 µM | > 80 µM | C[C@@H]1O[C@@H](O[C@H]2[C@H](O[C@@H]3CC[C@]4(C)C(=CC[C@@H]5[C@H]6C[C@H]7O[C@@]8(OC[C@](C)(O)C[C@H]8O)[C@H](C)[C@H]7[C@]6(C)CC[C@H]54)C3)O[C@H](CO)[C@@H](O)[C@@H]2O[C@@H]2O[C@@H](C)[C@H](O[C@@H]3O[C@H](CO)[C@@H](O)[C@H](O)[C@H]3O)[C@@H](O)[C@H]2O)[C@H](O)[C@H](O)[C@H]1O (stereo in doubt) | – | – | – | – | < 50% | < 50%
6 | > 80 µM | > 80 µM | C[C@@H]1CO[C@]2(C[C@@H]1O)O[C@@H]1C[C@@H]3[C@H]4CC=C5C[C@H](O[C@@H]6O[C@H](CO)[C@@H](O)[C@H](O[C@@H]7O[C@@H](C)[C@H](O[C@@H]8O[C@H](CO)[C@@H](O)[C@H](O)[C@H]8O)[C@@H](O)[C@H]7O)[C@H]6O[C@@H]6O[C@@H](C)[C@H](O)[C@@H](O)[C@H]6O)CC[C@@]5(C)[C@@H]4CC[C@@]3(C)[C@@H]1[C@H]2C (stereo in doubt) | – | – | – | – | < 50% | < 50%
7 | 4.3 µM | 5.3 µM | O=C(/C=C/c1ccc(O)c(O)c1)c1ccc(O)cc1O [BUTEIN] | – | – | – | – | – | –
8 | 43.7 µM | 37 µM | C[C@@H]1CO[C@@]2(O[C@@H]3C[C@@H]4[C@H]5CC=C6C[C@H](O[C@@H]7O[C@H](CO)[C@@H](O)[C@H](O[C@@H]8O[C@@H](C)[C@H](O[C@@H]9O[C@H](CO)[C@@H](O)[C@H](O)[C@H]9O)[C@@H](O)[C@H]8O)[C@H]7O[C@@H]7O[C@@H](C)[C@H](O)[C@@H](O)[C@H]7O)CC[C@@]6(C)[C@@H]5CC[C@@]4(C)[C@@H]3[C@H]2C)[C@H](O)C1 (stereo in doubt) | – | – | Active | Active | – | –
9 | > 80 µM | > 80 µM | C[C@@H]1O[C@@H](O[C@H]2[C@H](O[C@H]3CC[C@@]4(C)C(=CC[C@H]5[C@@H]6C[C@@H]7OC8(OC[C@](C)(O)C[C@@H]8O)[C@@H](C)[C@@H]7[C@@]6(C)CC[C@@H]54)C3)O[C@H](CO)[C@@H](O)[C@@H]2O[C@@H]2O[C@@H](C)[C@H](O)[C@@H](O)[C@H]2O)[C@H](O)[C@H](O)[C@H]1O (single isomer, unassigned) | – | – | – | – | < 50% | < 50%
